Experimental data from patent publication US20070037788A1, “Tricyclic steroid hormone nuclear receptor modulators” (Eli Lilly and Company, priority 2003, published 2007).
Where a name gives a salt, the structure may show the parent alone.

Molecular target: T1, human GR (glucocorticoid receptor) (Homo sapiens, UniProt P04150)
T1 construct: expressed in transfected cells; host or cells: 293 cells
T1 sequence (P04150 1-777): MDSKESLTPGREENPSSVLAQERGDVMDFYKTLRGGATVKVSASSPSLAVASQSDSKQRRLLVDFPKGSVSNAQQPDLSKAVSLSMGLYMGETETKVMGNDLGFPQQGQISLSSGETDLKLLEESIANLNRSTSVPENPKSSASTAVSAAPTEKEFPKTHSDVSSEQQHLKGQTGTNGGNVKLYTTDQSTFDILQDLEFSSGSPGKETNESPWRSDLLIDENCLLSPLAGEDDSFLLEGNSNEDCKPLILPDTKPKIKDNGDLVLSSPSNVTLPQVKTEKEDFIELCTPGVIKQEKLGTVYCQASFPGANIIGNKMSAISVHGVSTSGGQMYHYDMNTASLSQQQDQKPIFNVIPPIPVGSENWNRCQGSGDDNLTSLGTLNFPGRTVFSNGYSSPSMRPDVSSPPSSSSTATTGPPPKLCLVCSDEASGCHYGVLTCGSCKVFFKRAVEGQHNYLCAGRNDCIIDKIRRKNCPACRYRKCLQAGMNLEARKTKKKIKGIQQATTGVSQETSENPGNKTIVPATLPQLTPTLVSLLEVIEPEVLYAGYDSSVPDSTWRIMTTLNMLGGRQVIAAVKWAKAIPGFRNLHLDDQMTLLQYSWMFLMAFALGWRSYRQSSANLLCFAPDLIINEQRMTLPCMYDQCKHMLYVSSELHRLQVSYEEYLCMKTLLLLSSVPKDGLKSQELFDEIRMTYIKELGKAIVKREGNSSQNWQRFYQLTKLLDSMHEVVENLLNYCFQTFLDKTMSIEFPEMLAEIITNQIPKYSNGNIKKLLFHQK
Assay: Alternative Binding Assay Protocol (Method 2), GR
Settings: 293-GR lysate, 3H-dexamethasone
Description: Cell lysates from 293 cells overexpressing human GR (glucocorticoid receptor), AR (androgen receptor), MR (mineralocorticoid receptor) or PR (progesterone receptor) are used for competition binding assays to determine Ki values for test compounds. Briefly, competition binding assays are run in a buffer containing 20 mM Hepes, pH 7.6, 0.2 mM EDTA, 75 mM NaCl, 1.5 mM MgCl2, 20% glycerol, 20 mM sodium molybdate, 0.2 mM DTT, 20 ug/ml aprotinin and 20 ug/ml leupeptin, using either 0.3 nM ^3H-dexamethasone for GR binding, 0.36 nM ^3H-methyltrienolone for AR binding, 0.25 nM ^3H-aldosterone for MR binding, or 0.29 nM ^3H-methyltrienolone for PR binding, and either 20 ug 293-GR lysate, 22 ug 293-AR lysate, 20 ug 293-MR lysate or 40 ug 293-PR lysate per well. Competing compounds are added at various concentrations in half-log increments. Non-specific binding is determined in the presence of 500 nM dexamethasone for GR binding, 500 nM aldosterone for MR binding, or 500 nM methyltrienolone for AR and PR binding. The binding reaction (140 μl) is incubated for overnight at 4° C., then 70 μl of cold charcoal-dextran buffer (containing per 50 ml of assay buffer, 0.75 g of charcoal and 0.25 g of dextran) is added to each reaction. Plates are mixed 8 minutes on an orbital shaker at 4° C. Plates are then centrifuged at 3,000 rpm at 4° C. for 10 minutes. An aliquot of 120 μl of the mix is transferred to another 96-well plate and 175 μl of Wallac Optiphase “Hisafe 3” scintillation fluid is added to each well. Plates are sealed and shaken vigorously on an orbital shaker. After an incubation of 2 hrs, plates are read in a Wallac Microbeta counter. The data is used to calculate an IC50 and % Inhibition at 10 μM. The Kd for ^3H-dexamethasone for GR binding, ^3H-methyltrienolone for AR binding, ^3H-aldosterone for MR binding, or ^3H-methyltrienolone for PR binding, is determined by saturation binding. The IC50 values for compounds are converted to Ki using Cheng-Prusoff equation and the Kd determined by saturation binding assay.

| Compound | Ki [nM] |
| --- | --- |
| CC(C)(CN1CCOCC1)n1c(=O)[nH]c2cc(/C=C3\c4ccccc4COc4cc(F)ccc43)ccc21 [Example 1, 1-(1,1-Dimethyl-2-morpholin-4-yl-ethyl)-5-(3-fluoro-6H-dibenzo[b,e]oxepin-11-ylidenemethyl)-1,3-dihydro-benzoimidazol-2-one, E isomer] | < 1000 |
| CN1CCC(n2c(=O)[nH]c3cc(/C=C4/c5ccc(F)cc5OCc5c(F)cccc54)ccc32)CC1 [Example 2, 5-(3,7-Difluoro-6H-dibenzo[b,e]oxepine-11-ylidenemethyl)-1-(1-methyl-piperidin-4-yl)-1,3-dihydro-benzoimidazol-2-one, E-isomer] | < 1000 |
| CN1CCC(n2c(=O)[nH]c3cc(/C=C4\c5ccccc5COc5cc(F)ccc54)ccc32)CC1 [Example 3, 5-(3-Fluoro-6H-dibenzo[b,e]oxepin-11-ylidenemethyl)-1-(1-methyl-piperidin-4-yl)-1,3-dihydro-benzoimidazol-2-one, E isomer] | < 500 |
| CN1CCC(n2c(=O)[nH]c3cc(/C=C4\c5ccc(F)cc5COc5cc(F)ccc54)ccc32)CC1 [Example 4, 5-(3,8-Difluoro-6H-dibenzo[b,e]oxepin-11-ylidenemethyl)-1-(1-methyl-piperidin-4-yl) -1,3-dihydro-benzoimidazol-2-one, E isomer] | < 1000 |
| CCN1CC[C@@H](n2c(=O)[nH]c3cc(/C=C4\c5ccc(F)cc5COc5cc(F)ccc54)ccc32)C1 [Example 5, 5-(3,8-Difluoro-6H-dibenzo[b,e]oxepin-11-ylidenemethyl)-1-(1-ethyl-pyrrolidin-3-yl) -1,3-dihydro-benzoimidazol-2-one, HOAc salt, E isomer, chiral] | < 500 |
| CN1CCN(CCCn2c(=O)[nH]c3cc(/C=C4\c5ccccc5COc5cc(F)ccc54)ccc32)CC1 [Example 7] | < 500 |
| CN1CCN(CCn2c(=O)[nH]c3cc(/C=C4\c5ccccc5COc5cc(F)ccc54)ccc32)CC1 [Example 8] | < 500 |
| O=c1[nH]c2cc(/C=C3\c4ccccc4COc4cc(F)ccc43)ccc2n1[C@H]1CCNC1 [Example 9] | < 500 |
| C[C@H](CN1CCOCC1)n1c(=O)[nH]c2cc(/C=C3\c4ccccc4COc4cc(F)ccc43)ccc21 [Example 10] | < 500 |
| C[C@@H](CN1CCOCC1)n1c(=O)[nH]c2cc(/C=C3\c4ccccc4COc4cc(F)ccc43)ccc21 [Example 11] | < 500 |
| O=c1[nH]c2cc(/C=C3\c4ccccc4COc4cc(F)ccc43)ccc2n1C1CCNCC1 [Example 12] | < 1000 |
| C[C@@H]1CN(CCn2c(=O)[nH]c3cc(/C=C4\c5ccccc5COc5cc(F)ccc54)ccc32)C[C@H](C)O1 [Example 13] | < 500 |
| O=c1[nH]c2cc(/C=C3\c4ccccc4COc4cc(F)ccc43)ccc2n1CCN1CCNCC1 [Example 14] | < 500 |
| O=c1[nH]c2cc(/C=C3\c4ccccc4COc4cc(F)ccc43)ccc2n1C1CCNC1 (centres unmarked) [Example 15] | < 500 |
| O=c1[nH]c2cc(/C=C3\c4ccccc4COc4cc(F)ccc43)ccc2n1C1CCNC1 (centres unmarked) [Example 16] | < 500 |
| O=c1[nH]c2cc(/C=C3\c4ccccc4COc4cc(F)ccc43)ccc2n1C1CNC1 [Example 17] | < 500 |
| O=c1[nH]c2cc(/C=C3\c4ccccc4COc4cc(F)ccc43)ccc2n1C[C@@H]1CCCN1 [Example 18] | < 1000 |
| O=c1[nH]c2cc(/C=C3\c4ccccc4COc4cc(F)ccc43)ccc2n1C[C@H]1CCCN1 [Example 19] | < 1000 |
| CN1CCN(CCn2c(=O)[nH]c3cc(/C=C4\c5ccc(F)cc5COc5cc(F)ccc54)ccc32)CC1 [Example 20] | < 500 |
| O=c1[nH]c2cc(/C=C3\c4ccc(F)cc4COc4cc(F)ccc43)ccc2n1CCN1CCCC1 [Example 21] | < 500 |
| C[C@H](CN1CCOCC1)n1c(=O)[nH]c2cc(/C=C3\c4ccc(F)cc4COc4cc(F)ccc43)ccc21 [Example 22] | < 500 |
| C[C@@H](CN1CCOCC1)n1c(=O)[nH]c2cc(/C=C3\c4ccc(F)cc4COc4cc(F)ccc43)ccc21 [Example 23] | < 1000 |
| CC(C)(CN1CCOCC1)n1c(=O)[nH]c2cc(/C=C3\c4ccc(F)cc4COc4cc(F)ccc43)ccc21 [Example 24] | < 1000 |
| C[C@@H]1CN(CCn2c(=O)[nH]c3cc(/C=C4\c5ccc(F)cc5COc5cc(F)ccc54)ccc32)C[C@H](C)O1 [Example 25] | < 500 |
| O=c1[nH]c2cc(/C=C3\c4ccc(F)cc4COc4cc(F)ccc43)ccc2n1CCCN1CCOCC1 [Example 26] | < 500 |
| O=c1[nH]c2cc(/C=C3\c4ccc(F)cc4COc4cc(F)ccc43)ccc2n1C1CCNCC1 [Example 28] | < 500 |
| O=c1[nH]c2cc(/C=C3\c4ccc(F)cc4COc4cc(F)ccc43)ccc2n1[C@H]1CCNC1 [Example 29] | < 500 |
| O=c1[nH]c2cc(/C=C3\c4ccc(F)cc4COc4cc(F)ccc43)ccc2n1C1CNC1 [Example 30] | < 500 |

Now from value to compound:

| Ki [nM] | Compound |
| --- | --- |
| < 500 | O=c1[nH]c2cc(/C=C3\c4ccc(F)cc4COc4cc(F)ccc43)ccc2n1[C@@H]1CCNC1 [Example 31] |
| < 500 | CN1CC[C@H](n2c(=O)[nH]c3cc(/C=C4\c5ccc(F)cc5COc5cc(F)ccc54)ccc32)C1 [Example 32] |
| < 500 | CCN1CC[C@H](n2c(=O)[nH]c3cc(/C=C4\c5ccc(F)cc5COc5cc(F)ccc54)ccc32)C1 [Example 33] |
| < 500 | CN1CCN(CCn2c(=O)[nH]c3cc(/C=C4/c5ccc(F)cc5OCc5c(F)cccc54)ccc32)CC1 [Example 34] |
| < 1000 | O=c1[nH]c2cc(/C=C3/c4ccc(F)cc4OCc4c(F)cccc43)ccc2n1CCN1CCCC1 [Example 35] |
| < 500 | O=c1[nH]c2cc(/C=C3/c4ccc(F)cc4OCc4c(F)cccc43)ccc2n1C1CCNCC1 [Example 36] |
| < 500 | O=c1[nH]c2cc(/C=C3/c4ccc(F)cc4OCc4c(F)cccc43)ccc2n1[C@H]1CCNC1 [Example 37] |
| < 500 | C[C@H](CN1CCOCC1)n1c(=O)[nH]c2cc(/C=C3/c4ccc(F)cc4OCc4c(F)cccc43)ccc21 [Example 38] |
| < 1000 | C[C@@H](CN1CCOCC1)n1c(=O)[nH]c2cc(/C=C3/c4ccc(F)cc4OCc4c(F)cccc43)ccc21 [Example 39] |
| < 1000 | CC(C)(CN1CCOCC1)n1c(=O)[nH]c2cc(/C=C3/c4ccc(F)cc4OCc4c(F)cccc43)ccc21 [Example 40] |
| < 500 | C[C@@H]1CN(CCn2c(=O)[nH]c3cc(/C=C4/c5ccc(F)cc5OCc5c(F)cccc54)ccc32)C[C@H](C)O1 [Example 41] |
| < 500 | O=c1[nH]c2cc(/C=C3/c4ccc(F)cc4OCc4c(F)cccc43)ccc2n1CCCN1CCOCC1 [Example 42] |
| < 500 | O=c1[nH]c2cc(/C=C3/c4ccc(F)cc4OCc4c(F)cccc43)ccc2n1CCN1CCNCC1 [Example 43] |
| < 1000 | CCN1CC[C@H](n2c(=O)[nH]c3cc(/C=C4/c5ccc(F)cc5OCc5c(F)cccc54)ccc32)C1 [Example 44] |
| < 10000 | CN1CC[C@H](n2c(=O)[nH]c3cc(/C=C4/c5ccc(F)cc5OCc5c(F)cccc54)ccc32)C1 [Example 45] |
| < 1000 | CCN1CC[C@@H](n2c(=O)[nH]c3cc(/C=C4/c5ccc(F)cc5OCc5c(F)cccc54)ccc32)C1 [Example 46] |
